The values that follow come from ChEMBL document CHEMBL3045758, “Quantitative Structure-Activity Relationships of Fungicidal N-Phenylformamidoximes” (J Pestic Sci, 1992).

One may read the logP as the decadic logarithm of the partition coefficient of the neutral form, usually between octanol and water. A low value points to lower lipophilicity.

A value given as a limit tells only on which side of the number the result lay.

The subject of data set [1] is Botrytis cinerea. The experiment in a line: Fungicidal activity against benzimidazole-resistant Botryotinia fuckeliana after 48 hr by poisoned food technique. It counts as functional, organism-based.
For data set [2], the system named is Botrytis cinerea. The experiment in a line: Fungicidal activity against benzimidazole-resistant Botryotinia fuckeliana at 25 ppm after 48 hr by poisoned food technique. It counts as functional.
Data set [3] in a line: 1-octanol/water distribution coefficient, log P of the compound. It counts as physicochemical.
Data set [4] concerns Botrytis cinerea. As to the kind of experiment: Fungicidal activity against benzimidazole-resistant Botryotinia fuckeliana at 200 ppm after 48 hr by poisoned food technique. The format is functional.
The test system of another data set is Phaseolus vulgaris. As to the kind of experiment: Phytotoxicity against Phaseolus vulgaris (kidney bean) assessed as necrosis of leaf at 100 ppm after 7 days in greenhouse conditions. It counts as organism-based. The following applies: in vivo, 168 h.
For data set [5], the system named is Botrytis cinerea. The experiment in a line: Fungicidal activity against benzimidazole-resistant Botryotinia fuckeliana infected kidney bean leaf at 100 ppm after 7 days in greenhouse conditions by detached leaf test. The format is functional.
The subject of data set [6] is Botrytis cinerea. The experiment in a line: Fungicidal activity against benzimidazole-resistant Botryotinia fuckeliana at 6.2 ppm after 48 hr by poisoned food technique. It counts as functional.
The test system of data set [7] is Botrytis cinerea. The experiment in a line: Resistance ratio of EC50 for benzimidazole-resistant Botryotinia fuckeliana to EC50 for benzimidazole-sensitive Botryotinia fuckeliana. It counts as functional.
Data set [8] has as its system Botrytis cinerea. The experiment in a line: Fungicidal activity against benzimidazole-sensitive Botryotinia fuckeliana after 48 hr by poisoned food technique. It counts as functional, organism-based.
Data set [9] deals with Botrytis cinerea. The experiment in a line: Ratio of DMPF EC50 to compound EC50 for benzimidazole-resistant Botryotinia fuckeliana. The format is functional.
[10] abbreviates: Botrytis cinerea, 48 h, read-out: pEC50 (converted).

For the compound `CCO/N=C/Nc1cc(Cl)cc(Cl)c1`, the EC50 with Botrytis cinerea [1] (setting [10]) was 12 µM. The Activity in the data set with Botrytis cinerea [2] is 26%; with Botrytis cinerea [4], 100%; in the data set on Phaseolus vulgaris it was “<= 10%”; in the data set with Botrytis cinerea [5], less than 25%; in the data set with Botrytis cinerea [6], less than 25%. The logP in data set [3] worked out at 3.

As for `CO/N=C/Nc1cc(Cl)cc(Cl)c1`, the EC50 in the data set on Botrytis cinerea [1] is on record as 3 ppm; with Botrytis cinerea [8], 50 ppm. Besides, the “Ratio EC50” value with Botrytis cinerea [7] is recorded as 10000.

Regarding `C#CCc1c(Cl)cc(N/C=N/OC)cc1Cl`, the values for the EC50 with Botrytis cinerea [1], in the data set with Botrytis cinerea [1] (setting [10]) and in the data set on Botrytis cinerea [8] were 0.005 ppm, 0.0182 µM and 30 ppm, respectively. This compound also returned a logP in data set [3] of 3.3. Further, the “Ratio EC50” value stood at 10 in the data set on Botrytis cinerea [7] and 600 in the data set with Botrytis cinerea [9]. Further, the Activity entry with Phaseolus vulgaris was “Non-toxic”.

For `CCO/N=C/Nc1cc(C)c(OCC)c(C)c1` [N'-ETHOXY-N-(4-ETHOXY-3,5-DIMETHYLPHENYL)FORMIMIDAMIDE], the Activity with Botrytis cinerea [2] was 100%; in the data set on Botrytis cinerea [4], 100%; with Phaseolus vulgaris, “<= 10%”; in the data set with Botrytis cinerea [5], 50%; in the data set on Botrytis cinerea [6], 50%.

Turning to `CCO/N=C/Nc1ccc(OCC)c(C)c1` [N'-ETHOXY-N-(4-ETHOXY-3-METHYLPHENYL)FORMIMIDAMIDE], the Activity in the data set with Botrytis cinerea [2] was less than 25%; in the data set with Botrytis cinerea [4], 100%; in the data set on Phaseolus vulgaris, 11%; in the data set with Botrytis cinerea [5], less than 25%; in the data set with Botrytis cinerea [6], less than 25%.

As for `CCO/N=C/Nc1cc(C)c(OCC)c(OCC)c1` [N-(3,4-DIETHOXY-5-METHYLPHENYL)-N'-ETHOXYFORMIMIDAMIDE], the Activity in the data set with Botrytis cinerea [2] was 100%; with Botrytis cinerea [4], 100%; in the data set on Phaseolus vulgaris, “Non-toxic”; in the data set with Botrytis cinerea [5], 70%; in the data set on Botrytis cinerea [6], 100%.

Consider `CCO/N=C/Nc1cc(Cl)cc(Cl)c1OCC` [N-(3,5-DICHLORO-2-ETHOXYPHENYL)-N'-ETHOXYFORMIMIDAMIDE], for which the Activity in the data set on Botrytis cinerea [2] is 90%; in the data set on Botrytis cinerea [4], 100%; in the data set with Phaseolus vulgaris, “Non-toxic”; in the data set with Botrytis cinerea [5] it was less than 25%; in the data set on Botrytis cinerea [6], 70%.

Consider `CCO/N=C/Nc1cc(Cl)c(OCC)c(Cl)c1` [N-(3,5-DICHLORO-4-ETHOXYPHENYL)-N'-ETHOXYFORMIMIDAMIDE], for which the Activity is on record as 100% in the data set with Botrytis cinerea [2]; 100% with Botrytis cinerea [4]; “Non-toxic” with Phaseolus vulgaris; 100% with Botrytis cinerea [5]; 90% with Botrytis cinerea [6].

Regarding `CCO/N=C/Nc1cc(Cl)c(C)c(Cl)c1` [N-(3,5-DICHLORO-4-METHYLPHENYL)-N'-ETHOXYFORMIMIDAMIDE], the Activity with Botrytis cinerea [2] is less than 25%; in the data set on Botrytis cinerea [4] it was less than 25%; in the data set with Phaseolus vulgaris, “Non-toxic”; in the data set with Botrytis cinerea [5] it was less than 25%; with Botrytis cinerea [6], less than 25%.

Take `CCO/N=C/Nc1cc(Cl)c(OCC)c(OCC)c1` [N-(3-CHLORO-4,5-DIETHOXYPHENYL)-N'-ETHOXYFORMIMIDAMIDE]: the Activity was 100% in the data set on Botrytis cinerea [2]; 100% in the data set with Botrytis cinerea [4]; “Non-toxic” in the data set with Phaseolus vulgaris; 100% in the data set on Botrytis cinerea [5]; 100% in the data set with Botrytis cinerea [6].

On to `CCO/N=C/Nc1ccc(OCC)c(Cl)c1` [N-(3-CHLORO-4-ETHOXYPHENYL)-N'-ETHOXYFORMIMIDAMIDE], for which the Activity with Botrytis cinerea [2] was 26%; in the data set with Botrytis cinerea [4], 100%; in the data set on Phaseolus vulgaris, “Non-toxic”; in the data set with Botrytis cinerea [5], less than 25%; in the data set with Botrytis cinerea [6], less than 25%.

Turning to `CCO/N=C/Nc1ccc(C)c(Cl)c1` [N-(3-CHLORO-4-METHYLPHENYL)-N'-ETHOXYFORMIMIDAMIDE], the Activity in the data set with Botrytis cinerea [2] is on record as 26%; in the data set with Botrytis cinerea [4], 100%; with Phaseolus vulgaris it was “<= 10%”; with Botrytis cinerea [5], less than 25%; in the data set on Botrytis cinerea [6], less than 25%.

Regarding `CCO/N=C/Nc1ccc(Cl)cc1C` [N-(4-CHLORO-2-METHYLPHENYL)-N'-ETHOXYFORMIMIDAMIDE], the Activity in the data set on Botrytis cinerea [2] was less than 25%; in the data set on Botrytis cinerea [4], 70%; in the data set with Phaseolus vulgaris, 11%; with Botrytis cinerea [5] it was less than 25%; with Botrytis cinerea [6] it was less than 25%.

On to `CCO/N=C/Nc1cc(Cl)ccc1OCC` [N-(5-CHLORO-2-ETHOXYPHENYL)-N'-ETHOXYFORMIMIDAMIDE], for which the Activity is reported as 100% in the data set on Botrytis cinerea [2]; 100% in the data set on Botrytis cinerea [4]; “<= 10%” with Phaseolus vulgaris; less than 25% with Botrytis cinerea [5]; less than 25% in the data set on Botrytis cinerea [6].
